PubChem BioAssay (NCI)
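Exposure lasted 48 hours, with cells grown in 96-well plates and compounds tested at five concentrations. GI50 = concentration required for 50% inhibition of growth. The concentration for full growth arrest is given as TGI.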 Where a SMILES comes first, the peptide text is derived from it. [ ]: non-standard residue; d: D form. The star is where a group is joined. ξ: configuration not given here. X6 = FC(F)(F)c1cc(NC(=S)*)cc(C(F)(F)F)c1; ξF = NC(Cc1ccccc1)C(=O)O

system: HT29 colon; experiment: NCI anticancer screen, dose series, 48 h

SMILES | GI50 | TGI
OCc1ccc(N2CCC2c2ccc(F)cc2)cc1Cl (centres undefined) | 5.13 µM | 33 µM
COC(=O)c1cc2c(n1S(=O)(=O)c1ccc(C)cc1)C(=O)C(=O)c1[nH]cc(C(=O)OCc3ccccc3)c1-2 | – | 1.15 µM
O=C(Nc1ccccc1OC(F)(F)F)Nc1n[nH]c2ccccc12 | 26.1 µM | > 100 µM
COC(=O)[C@@H](NC(=O)CNC(=O)[C@H]1CCCN1C(=O)C(Cc1ccccc1)NC(=S)Nc1cc(C(F)(F)F)cc(C(F)(F)F)c1)C(C)C (some centres undefined) (X6-[ξF][dP]GV-OMe) | 2.44 µM | 5.75 µM

system: SF-268 CNS; experiment: NCI anticancer screen, dose series, 48 h

SMILES | GI50 | TGI
OCc1ccc(N2CCC2c2ccc(F)cc2)cc1Cl (centres undefined) | 35 µM | > 100 µM
COC(=O)c1cc2c(n1S(=O)(=O)c1ccc(C)cc1)C(=O)C(=O)c1[nH]cc(C(=O)OCc3ccccc3)c1-2 | – | 1.24 µM
O=C(Nc1ccccc1OC(F)(F)F)Nc1n[nH]c2ccccc12 | 16.2 µM | > 100 µM
COC(=O)[C@@H](NC(=O)CNC(=O)[C@H]1CCCN1C(=O)C(Cc1ccccc1)NC(=S)Nc1cc(C(F)(F)F)cc(C(F)(F)F)c1)C(C)C (some centres undefined) (X6-[ξF][dP]GV-OMe) | 2.98 µM | 10.7 µM

system: LOX IMVI melanoma; experiment: NCI anticancer screen, dose series, 48 h

SMILES | GI50 | TGI
OCc1ccc(N2CCC2c2ccc(F)cc2)cc1Cl (centres undefined) | 22.5 µM | 51.1 µM
COC(=O)c1cc2c(n1S(=O)(=O)c1ccc(C)cc1)C(=O)C(=O)c1[nH]cc(C(=O)OCc3ccccc3)c1-2 | – | 0.176 µM
O=C(Nc1ccccc1OC(F)(F)F)Nc1n[nH]c2ccccc12 | 22.5 µM | > 100 µM
COC(=O)[C@@H](NC(=O)CNC(=O)[C@H]1CCCN1C(=O)C(Cc1ccccc1)NC(=S)Nc1cc(C(F)(F)F)cc(C(F)(F)F)c1)C(C)C (some centres undefined) (X6-[ξF][dP]GV-OMe) | 2.25 µM | 5.55 µM

system: SK-MEL-2 melanoma; experiment: NCI anticancer screen, dose series, 48 h

SMILES | GI50 | TGI
OCc1ccc(N2CCC2c2ccc(F)cc2)cc1Cl (centres undefined) | 11.4 µM | 29.3 µM
COC(=O)c1cc2c(n1S(=O)(=O)c1ccc(C)cc1)C(=O)C(=O)c1[nH]cc(C(=O)OCc3ccccc3)c1-2 | – | 0.358 µM
O=C(Nc1ccccc1OC(F)(F)F)Nc1n[nH]c2ccccc12 | 81.4 µM | > 100 µM
COC(=O)[C@@H](NC(=O)CNC(=O)[C@H]1CCCN1C(=O)C(Cc1ccccc1)NC(=S)Nc1cc(C(F)(F)F)cc(C(F)(F)F)c1)C(C)C (some centres undefined) (X6-[ξF][dP]GV-OMe) | 2.86 µM | 6.86 µM

system: OVCAR-3 ovarian; experiment: NCI anticancer screen, dose series, 48 h

SMILES | GI50 | TGI
OCc1ccc(N2CCC2c2ccc(F)cc2)cc1Cl (centres undefined) | 2.34 µM | 13.8 µM
COC(=O)c1cc2c(n1S(=O)(=O)c1ccc(C)cc1)C(=O)C(=O)c1[nH]cc(C(=O)OCc3ccccc3)c1-2 | – | 0.0913 µM
O=C(Nc1ccccc1OC(F)(F)F)Nc1n[nH]c2ccccc12 | 90.8 µM | > 100 µM
COC(=O)[C@@H](NC(=O)CNC(=O)[C@H]1CCCN1C(=O)C(Cc1ccccc1)NC(=S)Nc1cc(C(F)(F)F)cc(C(F)(F)F)c1)C(C)C (some centres undefined) (X6-[ξF][dP]GV-OMe) | 2.96 µM | 8.48 µM

system: SN12C renal; experiment: NCI anticancer screen, dose series, 48 h

SMILES | GI50 | TGI
OCc1ccc(N2CCC2c2ccc(F)cc2)cc1Cl (centres undefined) | 18.2 µM | > 63.8 µM
COC(=O)c1cc2c(n1S(=O)(=O)c1ccc(C)cc1)C(=O)C(=O)c1[nH]cc(C(=O)OCc3ccccc3)c1-2 | – | 0.241 µM
O=C(Nc1ccccc1OC(F)(F)F)Nc1n[nH]c2ccccc12 | 72.5 µM | > 100 µM
COC(=O)[C@@H](NC(=O)CNC(=O)[C@H]1CCCN1C(=O)C(Cc1ccccc1)NC(=S)Nc1cc(C(F)(F)F)cc(C(F)(F)F)c1)C(C)C (some centres undefined) (X6-[ξF][dP]GV-OMe) | 1.85 µM | 4.26 µM

system: NCI-H23 lung; experiment: NCI anticancer screen, dose series, 48 h

SMILES | GI50 | TGI
OCc1ccc(N2CCC2c2ccc(F)cc2)cc1Cl (centres undefined) | 22.2 µM | > 80.1 µM
COC(=O)c1cc2c(n1S(=O)(=O)c1ccc(C)cc1)C(=O)C(=O)c1[nH]cc(C(=O)OCc3ccccc3)c1-2 | – | 0.211 µM
O=C(Nc1ccccc1OC(F)(F)F)Nc1n[nH]c2ccccc12 | 50 µM | > 100 µM
COC(=O)[C@@H](NC(=O)CNC(=O)[C@H]1CCCN1C(=O)C(Cc1ccccc1)NC(=S)Nc1cc(C(F)(F)F)cc(C(F)(F)F)c1)C(C)C (some centres undefined) (X6-[ξF][dP]GV-OMe) | 2.53 µM | 8.02 µM
